From ChEMBL document CHEMBL4007488, “Amphiphilic Indole Derivatives as Antimycobacterial Agents: Structure-Activity Relationships and Membrane Targeting Properties” (J Med Chem, 2017)

Tests used:
[1] = test system: Mycobacterium tuberculosis; assay: Antimycobacterial activity against Mycobacterium tuberculosis H37Rv ATCC 27294 assessed as growth inhibition at 10 uM after 5 days relative to control; format: functional; settings: H37Rv ATCC 27294, 120 h, read-out: GI
[2] = test system: Mycolicibacterium smegmatis; assay: Antimycobacterial activity against Mycobacterium smegmatis MC2 155 ATCC 700084 assessed as growth inhibition at 10 uM after 5 days relative to control; format: functional; settings: MC2 155 ATCC 700084, 120 h, read-out: GI

Row | SMILES | inhibition of growth at 10 µM [1] [%] | inhibition of growth at 10 µM [2] [%]
1 | CCCCCCCCn1cc(CNC23CC4CC(CC(C4)C2)C3)c2ccc(OC)cc21 | 99 | 99
2 | CCCCCCCCn1cc(CN2CCCCC2)c2cc(Br)ccc21 | 99 | 99
3 | CC(C)=CCC/C(C)=C/Cn1cc(CN2CCCCC2)c2cccnc21 | 99 | 99
4 | CCCCCCCCn1cc(CN2CCCCC2)c2ccc(OC)cc21 | 99 | 99
5 | CCCCCCCCn1cc(CN2CCCCCC2)c2ccc(OC)cc21 | 99 | 99
6 | CCCCCCCCn1cc(CNC2CCCC2)c2cc(F)ccc21 | 99 | 99
7 | CCCCCCCCn1cc(CN2CCCCCC2)c2c(OC)cccc21 | 99 | 99
8 | CCCCCCCCn1cc(CNC2CC2)c2cc(F)ccc21 | 99 | 99
9 | CC(C)=CCC/C(C)=C/Cn1cc(CN2CCN(C)CC2)c2cc(F)ccc21 | 99 | 99
10 | CC(C)=CCC/C(C)=C/Cn1cc(CN2CCCCC2)c2cc(Br)ccc21 | 99 | 99
11 | O=C(Cn1cc(CN2CCCCC2)c2cc(F)ccc21)NC1CC1 | 99 | 99
12 | CCCCCCCCn1cc(CNC23CC4CC(CC(C4)C2)C3)c2c(OC)cccc21 | 99 | 99
13 | CCCCCCCCn1cc(CN2CCCCC2)c2cccc(F)c21 | 99 | 99
14 | CC(C)=CCC/C(C)=C/Cn1cc(CN2CCSCC2)c2cc(F)ccc21 | 99 | 99
15 | CCCN(C)Cc1cn(C/C=C(\C)CCC=C(C)C)c2ccc(F)cc12 | 99 | 99
16 | CCCCCCCCn1cc(CN(CCCC)CCCC)c2cc(F)ccc21 | 99 | 99
17 | CCCCCCCCn1cc(CN(CCC)CCC)c2cc(F)ccc21 | 99 | 99
18 | CCCCCCCCn1cc(CN2CCCCC2)c2cc(Cl)ccc21 | 99 | 99
19 | CCCCCCCCn1cc(CNC23CC4CC(CC(C4)C2)C3)c2ccc(F)cc21 | 99 | 99

Row | SMILES | inhibition of growth at 10 µM [1] [%] | inhibition of growth at 10 µM [2] [%]
20 | CCCN(CCC)Cc1cn(C/C=C(\C)CCC=C(C)C)c2ccc(F)cc12 | 99 | 99
21 | CCCN(CC)Cc1cn(C/C=C(\C)CCC=C(C)C)c2ccc(F)cc12 | 99 | 99
22 | CCCCCCCCn1cc(CN2CCCCCC2)c2cccc(OC)c21 | 99 | 99
23 | N#CCCCn1cc(CN2CCCCC2)c2cc(F)ccc21 | 99 | 99
24 | CCCCCCCCn1cc(CN2CCCCC2)c2cccc(OC)c21 | 99 | 99
25 | CC(C)=CCC/C(C)=C/Cn1cc(CN2CCCCC2)c2cc(Cl)ccc21 | 99 | 99
26 | CC(C)=CCC/C(C)=C/Cn1ccc2cc(F)ccc21 | 99 | 99
27 | CCCCCCCCn1cc(CN2CCC3(CC2)OCCO3)c2cc(F)ccc21 | 99 | 99
28 | CCCCCCCCn1cc(CN2CCCCCC2)c2ccc(F)cc21 | 99 | 99
29 | CCCCCCCCn1cc(CNC23CC4CC(CC(C4)C2)C3)c2cc(OC)ccc21 | 99 | 99
30 | CCCCCCCCn1cc(CN(C)CCC)c2cc(F)ccc21 | 99 | 99
31 | CCCCCCCCn1cc(CN2CCC(C)CC2)c2c(OC)cccc21 | 99 | 99
32 | CCCCCCCCn1cc(CN2CCN(CC)CC2)c2cc(F)ccc21 | 99 | 99
33 | CCCCCCCCn1cc(CN2CCC(C)CC2)c2cc(F)ccc21 | 99 | 99
34 | CC(C)=CCC/C(C)=C/Cn1cc(CN2CCC3(CC2)OCCO3)c2cc(F)ccc21 | 99 | 99
35 | CCCCCCCCn1cc(CN2CCCCC2)c2c(OC)cccc21 | 99 | 99
36 | CCCCCCCCn1cc(CN2CCCCC2)c2cc(F)ccc21 | 99 | 99
37 | CC(C)=CCC/C(C)=C/Cn1cc(CN2CCCC2)c2cc(F)ccc21 | 99 | 99
38 | CCCCCCCCn1cc(CN2CCC(C)CC2)c2ccc(F)cc21 | 99 | 99

Row | SMILES | inhibition of growth at 10 µM [1] [%] | inhibition of growth at 10 µM [2] [%]
39 | CCCCCCCCn1cc(CN2CCSCC2)c2cc(F)ccc21 | 99 | 99
40 | CC(C)=CCC/C(C)=C/Cn1cc(CNC23CC4CC(CC(C4)C2)C3)c2cc(F)ccc21 | 99 | 99
41 | CCCCCCCCn1cc(CN2CCCCC2)c2cc(OC)ccc21 | 99 | 99
42 | CCCCCCCCn1cc(CNC23CC4CC(CC(C4)C2)C3)c2cccc(F)c21 | 99 | 99
43 | CC(C)=CCC/C(C)=C/Cn1cc(CNC2CCCCCC2)c2cc(F)ccc21 | 99 | 99
44 | CCCCCCCCn1cc(CN(CC)CC)c2cc(F)ccc21 | 99 | 99
45 | CCCCCCCCn1cc(CN(C)C)c2cc(F)ccc21 | 99 | 99
46 | CC(C)=CCC/C(C)=C/Cn1cc(C(=O)N2CCCCC2)c2cc(F)ccc21 | 99 | 99
47 | CCCCCCCCn1cc(CN2CCCCC2)c2c(F)cccc21 | 99 | 99
48 | Fc1ccc2c(c1)c(CN1CCCCC1)cn2CCCOc1ccccc1 | 99 | 99
49 | CC(C)=CCC/C(C)=C/Cn1cc(CN2CCOCC2)c2cc(F)ccc21 | 99 | 99
50 | CCCCCCCCn1cc(CN2CCCC2)c2cc(F)ccc21 | 99 | 99
51 | CCCCN(CCCC)Cc1cn(C/C=C(\C)CCC=C(C)C)c2ccc(F)cc12 | 99 | 99
52 | CCCCCCCCn1ccc2cc(F)ccc21 | 99 | 99
53 | CCCCCCCCn1cc(CN2CCCCC2)c2ccccc21 | 99 | 99
54 | CCCCCCCCn1cc(CN2CCCCCC2)c2cc(F)ccc21 | 99 | 99
55 | Fc1ccc2c(c1)c(CN1CCCCC1)cn2CCCc1ccccc1 | 99 | 99
56 | CCCCCCCCn1cc(CN2CCC3(CC2)OCCO3)c2c(OC)cccc21 | 99 | 99
